# pIC50: −log10 of the molar value.
# How the values were obtained:
# Type in all cases: functional, cell-based
# [1] = tested on: RPMI-7951; assay: cells; conditions: Homo sapiens
# Description: SANGER: Inhibition of human RPMI-7951 cell growth in a cell viability assay.
# [2] = tested on: NCI-H650; assay: cells; conditions: Homo sapiens;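 also: growth inhibition of NCI-H650 cells, read out by a viability assay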
# Description: SANGER: Inhibition of human NCI-H650 cell growth in a cell viability assay.
# [3] = tested on: NCI-H661; assay: cells; conditions: Homo sapiens;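 also: cell viability assay read-out, IC50 being the concentration that inhibits growth of the cells by half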
# Description: SANGER: Inhibition of human NCI-H661 cell growth in a cell viability assay.
# [4] = tested on: WM-115; assay: cells; conditions: Homo sapiens
# Description: SANGER: Inhibition of human WM-115 cell growth in a cell viability assay.
# [5] = tested on: MHH-CALL-2; assay: cells; conditions: Homo sapiens;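 also: growth inhibition of the cell line, read out in a cell viability assay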
# Description: SANGER: Inhibition of human MHH-CALL-2 cell growth in a cell viability assay.
# [6] = tested on: NCI-H2405; assay: cells; conditions: Homo sapiens;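 also: growth inhibition of the human cell line, read out with a cell viability assay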
# Description: SANGER: Inhibition of human NCI-H2405 cell growth in a cell viability assay.
# [7] = tested on: A204; assay: cells; conditions: Homo sapiens;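 also: growth inhibition of human A204 cells, read out with a cell viability assay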
# Description: SANGER: Inhibition of human A204 cell growth in a cell viability assay.
# [8] = tested on: MDA-MB-361; assay: cells; conditions: Homo sapiens
# [9] = tested on: S-117; assay: cells; conditions: Homo sapiens
# Description: SANGER: Inhibition of human S-117 cell growth in a cell viability assay.
# [10] = tested on: AGS; assay: cells; conditions: Homo sapiens;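 also: growth inhibition of AGS cells, determined with a cell viability assay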
# Description: SANGER: Inhibition of human AGS cell growth in a cell viability assay.
# [11] = tested on: A2058; assay: cells; conditions: Homo sapiens;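 also: reduction of A2058 cell growth, read out with a viability assay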
# Description: SANGER: Inhibition of human A2058 cell growth in a cell viability assay.
# [12] = tested on: PANC-03-27; assay: cells; conditions: Homo sapiens
# Description: SANGER: Inhibition of human PANC-03-27 cell growth in a cell viability assay.
# [13] = tested on: MC-CAR; assay: cells; conditions: Homo sapiens;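 also: growth inhibition of the human MC-CAR cell line, read out by a cell viability assay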
# Description: SANGER: Inhibition of human MC-CAR cell growth in a cell viability assay.
# [14] = tested on: RL; assay: cells; conditions: Homo sapiens
# Description: SANGER: Inhibition of human RL cell growth in a cell viability assay.
# [15] = tested on: IMR-5; assay: cells; conditions: Homo sapiens;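 also: growth inhibition of human IMR-5 cells, read out with a cell viability assay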
# Description: SANGER: Inhibition of human IMR-5 cell growth in a cell viability assay.
# [16] = tested on: D-392MG; assay: cells; conditions: Homo sapiens
# [17] = tested on: LC4-1; assay: cells; conditions: Homo sapiens;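 also: growth inhibition of LC4-1 cells, read out with a cell viability assay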
# Description: SANGER: Inhibition of human LC4-1 cell growth in a cell viability assay.
# [18] = tested on: BFTC-909; assay: cells; conditions: Homo sapiens
# Description: SANGER: Inhibition of human BFTC-909 cell growth in a cell viability assay.
# [19] = tested on: EFO-27; assay: cells; conditions: Homo sapiens;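 also: growth inhibition of EFO-27 cells, read out with a cell viability assay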
# Description: SANGER: Inhibition of human EFO-27 cell growth in a cell viability assay.
# [20] = tested on: UACC-62; assay: cells; conditions: Homo sapiens;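 also: growth inhibition of human UACC-62 cells, read out by a cell viability assay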
# Description: SANGER: Inhibition of human UACC-62 cell growth in a cell viability assay.
# [21] = tested on: CAMA-1; assay: cells; conditions: Homo sapiens;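 also: growth inhibition of CAMA-1 cells, read out with a cell viability assay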
# Description: SANGER: Inhibition of human CAMA-1 cell growth in a cell viability assay.
# [22] = tested on: SIMA; assay: cells; conditions: Homo sapiens;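 also: growth inhibition of SIMA cells, measured with a cell viability readout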
# Description: SANGER: Inhibition of human SIMA cell growth in a cell viability assay.
# [23] = tested on: P12-Ichikawa; assay: cells; conditions: Homo sapiens
# [24] = tested on: NCI-H28; assay: cells; conditions: Homo sapiens;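 also: growth inhibition of human NCI-H28 cells, read out as cell viability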
# Description: SANGER: Inhibition of human NCI-H28 cell growth in a cell viability assay.
# [25] = tested on: NCI-N87; assay: cells; conditions: Homo sapiens;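 also: growth inhibition of human NCI-N87 cells, read out with a cell viability assay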
# Description: SANGER: Inhibition of human NCI-N87 cell growth in a cell viability assay.
# [26] = tested on: OAW-28; assay: cells; conditions: Homo sapiens;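 also: growth inhibition of OAW-28 cells, read out with a cell viability assay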
# Description: SANGER: Inhibition of human OAW-28 cell growth in a cell viability assay.
# [27] = tested on: NCI-H1436; assay: cells; conditions: Homo sapiens;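 also: growth suppression of human NCI-H1436 cells, determined with a cell viability readout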
# Description: SANGER: Inhibition of human NCI-H1436 cell growth in a cell viability assay.
# [28] = tested on: SU-DHL-1; assay: SANGER: Inhibition of human SU-DHL-1 cell growth in a cell viability assay.
# [29] = tested on: NCI-H1882; assay: cells; conditions: Homo sapiens;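 also: growth inhibition of the cell line, determined with a viability assay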
# Description: SANGER: Inhibition of human NCI-H1882 cell growth in a cell viability assay.
# [30] = tested on: SKG-IIIa; assay: cells; conditions: Homo sapiens;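 also: cell growth inhibition, read out with a cell viability assay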
# Description: SANGER: Inhibition of human SKG-IIIa cell growth in a cell viability assay.
# [31] = tested on: KP-4; assay: cells; conditions: Homo sapiens;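 also: human KP-4 cells, with growth inhibition read out through a cell viability assay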
# Description: SANGER: Inhibition of human KP-4 cell growth in a cell viability assay.
# [32] = tested on: OAW-42; assay: cells; conditions: Homo sapiens;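 also: growth inhibition of OAW-42 cells, read out with a cell viability assay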
# Description: SANGER: Inhibition of human OAW-42 cell growth in a cell viability assay.
# [33] = tested on: SCC-25; assay: cells; conditions: Homo sapiens;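 also: growth inhibition of SCC-25 cells, measured with a cell viability assay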
# Description: SANGER: Inhibition of human SCC-25 cell growth in a cell viability assay.
# [34] = tested on: KARPAS-422; assay: cells; conditions: Homo sapiens
# Description: SANGER: Inhibition of human KARPAS-422 cell growth in a cell viability assay.
# [35] = tested on: SW13; assay: cells; conditions: Homo sapiens;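 also: IC50 is inhibition of SW13 cell growth, read out with a cell viability assay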
# Description: SANGER: Inhibition of human SW13 cell growth in a cell viability assay.
# [36] = tested on: SW1573; assay: cells; conditions: Homo sapiens;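 also: growth inhibition of SW1573 cells, read out with a cell viability assay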
# Description: SANGER: Inhibition of human SW1573 cell growth in a cell viability assay.
# [37] = tested on: HMV-2 cell line; assay: cells; conditions: Homo sapiens;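 also: growth inhibition of HMV-II cells, read out with a cell viability assay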
# Description: SANGER: Inhibition of human HMV-II cell growth in a cell viability assay.
# [38] = tested on: DK-MG; assay: cells; conditions: Homo sapiens;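 also: growth inhibition of DK-MG cells, read out with a cell viability assay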
# Description: SANGER: Inhibition of human DK-MG cell growth in a cell viability assay.
# [39] = tested on: RMG-I; assay: cells; conditions: Homo sapiens;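 also: growth inhibition of human RMG-I cells, read out with a cell viability assay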
# Description: SANGER: Inhibition of human RMG-I cell growth in a cell viability assay.
# [40] = tested on: MDA-MB-134-VI; assay: cells; conditions: Homo sapiens
# Description: SANGER: Inhibition of human MDA-MB-134-VI cell growth in a cell viability assay.
# [41] = tested on: AU565; assay: cells; conditions: Homo sapiens;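 also: cell viability assay measuring growth inhibition of human AU565 cells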
# Description: SANGER: Inhibition of human AU565 cell growth in a cell viability assay.
# [42] = tested on: COLO-679; assay: cells; conditions: Homo sapiens
# Description: SANGER: Inhibition of human COLO-679 cell growth in a cell viability assay.
# [43] = tested on: HCC1954; assay: cells; conditions: Homo sapiens;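 also: growth inhibition of human HCC1954 cells, read out with a cell viability assay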
# Description: SANGER: Inhibition of human HCC1954 cell growth in a cell viability assay.
# [44] = tested on: MIA PaCa-2; assay: cells; conditions: Homo sapiens;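 also: growth inhibition of MIA PaCa-2 cells, read out with a cell viability assay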
# Description: SANGER: Inhibition of human MIA-PaCa-2 cell growth in a cell viability assay.
# [45] = tested on: CMK; assay: cells; conditions: Homo sapiens;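 also: growth inhibition of CMK cells, read out as cell viability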
# Description: SANGER: Inhibition of human CMK cell growth in a cell viability assay.
# [46] = tested on: SN12C; assay: cells; conditions: Homo sapiens;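 also: growth inhibition of human SN12C cells, measured by a cell viability assay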
# Description: SANGER: Inhibition of human SN12C cell growth in a cell viability assay.
# [47] = tested on: T98G; assay: cells; conditions: Homo sapiens;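 also: growth inhibition of T98G cells, read out by a cell viability assay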
# Description: SANGER: Inhibition of human T98G cell growth in a cell viability assay.
# [48] = tested on: G-401; assay: cells; conditions: Homo sapiens
# Description: SANGER: Inhibition of human G-401 cell growth in a cell viability assay.
# [49] = tested on: CAL-62; assay: cells; conditions: Homo sapiens;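 also: growth inhibition of CAL-62 cells, read out with a cell viability assay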
# Description: SANGER: Inhibition of human CAL-62 cell growth in a cell viability assay.
# [50] = tested on: CAL-85-1; assay: cells; conditions: Homo sapiens;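 also: growth inhibition of human CAL-85-1 cells, read out with a cell viability assay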
# Description: SANGER: Inhibition of human CAL-85-1 cell growth in a cell viability assay.
# [51] = tested on: TE-15; assay: cells; conditions: Homo sapiens;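 also: cell viability readout of growth inhibition in TE-15 cells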
# Description: SANGER: Inhibition of human TE-15 cell growth in a cell viability assay.
# [52] = tested on: KOSC-2; assay: cells; conditions: Homo sapiens;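 also: growth inhibition of KOSC-2 cells, read out by a cell viability assay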
# Description: SANGER: Inhibition of human KOSC-2 cell growth in a cell viability assay.
# [53] = tested on: HuP-T3; assay: cells; conditions: Homo sapiens;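 also: HuP-T3 cell growth inhibition, read out with a cell viability assay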
# Description: SANGER: Inhibition of human HuP-T3 cell growth in a cell viability assay.
# [54] = tested on: RVH-421; assay: cells; conditions: Homo sapiens
# Description: SANGER: Inhibition of human RVH-421 cell growth in a cell viability assay.
# [55] = tested on: CA46; assay: cells; conditions: Homo sapiens;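 also: growth inhibition of human CA46 cells, read out by a cell viability assay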
# Description: SANGER: Inhibition of human CA46 cell growth in a cell viability assay.
# [56] = tested on: HCC2157; assay: cells; conditions: Homo sapiens;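 also: growth inhibition of the cancer cell line, read out as cell viability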
# Description: SANGER: Inhibition of human HCC2157 cell growth in a cell viability assay.
# [57] = tested on: HCC70; assay: cells; conditions: Homo sapiens;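 also: cell viability assay measuring how strongly the compound suppresses proliferation of HCC70 cells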
# Description: SANGER: Inhibition of human HCC70 cell growth in a cell viability assay.
# [58] = tested on: HSC-4; assay: cells; conditions: Homo sapiens;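 also: growth inhibition of human HSC-4 cells, read out with a cell viability assay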
# Description: SANGER: Inhibition of human HSC-4 cell growth in a cell viability assay.
# [59] = tested on: NCI-H2087; assay: cells; conditions: Homo sapiens;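 also: growth inhibition determined with a cell viability readout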
# Description: SANGER: Inhibition of human NCI-H2087 cell growth in a cell viability assay.
# [60] = tested on: CAL-51; assay: cells; conditions: Homo sapiens;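 also: human CAL-51 cell line, growth inhibition read out via a cell viability assay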
# Description: SANGER: Inhibition of human CAL-51 cell growth in a cell viability assay.
# [61] = tested on: NCI-H810; assay: cells; conditions: Homo sapiens;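 also: IC50 reflects inhibition of cancer cell line growth, read out with a cell viability assay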
# Description: SANGER: Inhibition of human NCI-H810 cell growth in a cell viability assay.
# [62] = tested on: SK-MES-1; assay: cells; conditions: Homo sapiens;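 also: growth inhibition of human SK-MES-1 cells, read out with a cell viability assay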
# Description: SANGER: Inhibition of human SK-MES-1 cell growth in a cell viability assay.
# [63] = tested on: Kasumi 1; assay: cells; conditions: Homo sapiens;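 also: growth inhibition of human Kasumi-1 cells, read out by a cell viability assay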
# Description: SANGER: Inhibition of human KASUMI-1 cell growth in a cell viability assay.
# [64] = tested on: NB17; assay: cells; conditions: Homo sapiens;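 also: growth inhibition of NB17 cells, read out with a cell viability assay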
# Description: SANGER: Inhibition of human NB17 cell growth in a cell viability assay.
compound,measurement,setting,value
CCNC(=O)c1noc(-c2cc(C(C)C)c(O)cc2O)c1-c1ccc(CN2CCOCC2)cc1 [LUMINESPIB],pIC50,[1],8.20
same,pIC50,[2],7.67
same,pIC50,[3],6.95
same,pIC50,[4],< 6.59
same,pIC50,[5],< 6.59
same,pIC50,[6],7.54
same,pIC50,[7],7.67
same,pIC50,[8],7.23
same,pIC50,[9],6.90
same,pIC50,[10],7.97
same,pIC50,[11],7.53
same,pIC50,[12],7.93
same,pIC50,[13],7.34
same,pIC50,[14],< 6.59
same,pIC50,[15],7.35
same,pIC50,[16],7.42
same,pIC50,[17],6.94
same,pIC50,[18],7.51
same,pIC50,[19],7.99
same,pIC50,[20],6.92
same,pIC50,[21],7.20
same,pIC50,[22],< 6.59
same,pIC50,[23],< 6.59
same,pIC50,[24],< 6.59
same,pIC50,[25],7.11
same,pIC50,[26],< 6.59
same,pIC50,[27],6.66
same,pIC50,[28],7.16
same,pIC50,[29],< 6.59
same,pIC50,[30],6.75
same,pIC50,[31],7.44
same,pIC50,[32],7.43
same,pIC50,[33],6.87
same,pIC50,[34],6.85
same,pIC50,[35],7.34
same,pIC50,[36],7.24
same,pIC50,[37],8.35
same,pIC50,[38],7.12
same,pIC50,[39],< 6.59
same,pIC50,[40],6.76
same,pIC50,[41],6.93
same,pIC50,[42],7.51
same,pIC50,[43],< 6.59
same,pIC50,[44],7.82
same,pIC50,[45],> 9.00
same,pIC50,[46],6.61
same,pIC50,[47],7.13
same,pIC50,[48],7.99
same,pIC50,[49],7.59
same,pIC50,[50],7.92
same,pIC50,[51],7.87
same,pIC50,[52],7.39
same,pIC50,[53],7.78
same,pIC50,[54],7.71
same,pIC50,[55],7.27
same,pIC50,[56],7.24
same,pIC50,[57],7.26
same,pIC50,[58],6.77
same,pIC50,[59],7.48
same,pIC50,[60],8.49
same,pIC50,[61],7.76
same,pIC50,[62],8.02
CC[C@@]1(O)C(=O)OCc2c1cc1n(c2=O)Cc2cc3ccccc3nc2-1 [CAMPTOTHECIN],pIC50,[1],8.32
same,pIC50,[2],7.26
same,pIC50,[3],7.87
same,pIC50,[6],7.23
same,pIC50,[7],8.34
same,pIC50,[8],7.46
same,pIC50,[9],7.11
same,pIC50,[10],7.79
same,pIC50,[11],8.44
same,pIC50,[12],8.15
same,pIC50,[16],7.75
same,pIC50,[18],8.16
same,pIC50,[19],7.09
same,pIC50,[20],7.51
same,pIC50,[21],7.06
same,pIC50,[23],9.99
same,pIC50,[24],7.41
same,pIC50,[63],8.39
same,pIC50,[25],8.06
same,pIC50,[26],8.14
same,pIC50,[64],8.66
same,pIC50,[30],8.34
same,pIC50,[31],8.50
same,pIC50,[32],8.05
same,pIC50,[33],7.25
same,pIC50,[35],8.52
same,pIC50,[36],8.63
same,pIC50,[37],8.05
same,pIC50,[38],7.07
same,pIC50,[41],8.43
same,pIC50,[42],< 7.00
same,pIC50,[44],8.56
same,pIC50,[46],8.35
same,pIC50,[47],7.57
same,pIC50,[48],7.72
same,pIC50,[49],9.01
same,pIC50,[50],< 7.00
same,pIC50,[52],8.36
same,pIC50,[53],7.44
same,pIC50,[54],7.15
same,pIC50,[57],7.34
same,pIC50,[58],9.74
same,pIC50,[59],8.29
same,pIC50,[60],7.53
same,pIC50,[61],7.30
same,pIC50,[62],7.97
CC(O)(CS(=O)(=O)c1ccc(F)cc1)C(=O)Nc1ccc(C#N)c(C(F)(F)F)c1 (stereo unspecified) [BICALUTAMIDE],pIC50,[1],< 5.99
same,pIC50,[2],< 5.99
same,pIC50,[3],< 5.99
same,pIC50,[4],< 5.99
same,pIC50,[5],< 5.99
same,pIC50,[6],< 5.99
same,pIC50,[7],< 5.99
same,pIC50,[8],< 5.99
same,pIC50,[9],< 5.99
same,pIC50,[10],< 5.99
same,pIC50,[11],< 5.99
same,pIC50,[12],< 5.99
same,pIC50,[13],< 5.99
same,pIC50,[14],< 5.99
same,pIC50,[15],< 5.99
same,pIC50,[16],< 5.99
same,pIC50,[17],< 5.99
same,pIC50,[18],< 5.99
same,pIC50,[19],< 5.99
same,pIC50,[20],< 5.99
same,pIC50,[21],< 5.99
same,pIC50,[22],< 5.99
same,pIC50,[23],< 5.99
same,pIC50,[24],< 5.99
same,pIC50,[25],< 5.99
same,pIC50,[26],< 5.99
same,pIC50,[27],< 5.99
same,pIC50,[28],< 5.99
same,pIC50,[29],< 5.99
same,pIC50,[30],< 5.99
same,pIC50,[31],< 5.99
same,pIC50,[32],< 5.99
same,pIC50,[33],< 5.99
same,pIC50,[34],< 5.99
same,pIC50,[35],< 5.99
same,pIC50,[36],< 5.99
same,pIC50,[37],< 5.99
same,pIC50,[38],< 5.99
same,pIC50,[39],< 5.99
same,pIC50,[40],< 5.99
same,pIC50,[41],< 5.99
same,pIC50,[42],< 5.99
same,pIC50,[43],< 5.99
same,pIC50,[44],< 5.99
same,pIC50,[45],< 5.99
same,pIC50,[46],< 5.99
same,pIC50,[47],< 5.99
same,pIC50,[48],< 5.99
same,pIC50,[49],< 5.99
same,pIC50,[50],< 5.99
same,pIC50,[51],< 5.99
same,pIC50,[52],< 5.99
same,pIC50,[53],< 5.99
same,pIC50,[54],< 5.99
same,pIC50,[55],< 5.99
same,pIC50,[56],< 5.99
same,pIC50,[57],< 5.99
same,pIC50,[58],< 5.99
same,pIC50,[59],< 5.99
same,pIC50,[60],< 5.99
same,pIC50,[61],< 5.99
same,pIC50,[62],< 5.99
CO[C@@]12[C@H](COC(N)=O)C3=C(C(=O)C(C)=C(N)C3=O)N1C[C@@H]1N[C@@H]12 [MITOMYCIN],pIC50,[1],6.78
same,pIC50,[2],6.46
same,pIC50,[3],6.27
same,pIC50,[4],< 4.80
same,pIC50,[5],> 7.20
same,pIC50,[6],6.53
same,pIC50,[7],7.07
same,pIC50,[8],6.09
same,pIC50,[9],6.23
same,pIC50,[10],6.98
same,pIC50,[11],6.94
same,pIC50,[12],6.78
same,pIC50,[13],6.79
same,pIC50,[14],5.26
same,pIC50,[15],> 7.20
same,pIC50,[16],5.17
same,pIC50,[17],5.91
same,pIC50,[18],7.07
same,pIC50,[19],5.95
same,pIC50,[20],5.67
same,pIC50,[21],6.27
same,pIC50,[22],6.62
same,pIC50,[23],> 7.20
same,pIC50,[24],5.61
same,pIC50,[25],6.36
same,pIC50,[26],6.36
same,pIC50,[27],5.72
same,pIC50,[28],> 7.20
same,pIC50,[29],6.59
same,pIC50,[30],6.42
same,pIC50,[32],7.05
same,pIC50,[33],6.06
same,pIC50,[34],6.04
same,pIC50,[35],6.19
same,pIC50,[36],6.84
same,pIC50,[37],6.78
same,pIC50,[38],< 4.80
same,pIC50,[39],5.46
same,pIC50,[40],5.67
same,pIC50,[41],6.30
same,pIC50,[42],7.04
same,pIC50,[43],5.64
same,pIC50,[44],6.56
same,pIC50,[45],> 7.20
same,pIC50,[46],5.46
same,pIC50,[47],6.28
same,pIC50,[48],6.20
same,pIC50,[49],6.62
same,pIC50,[50],7.18
same,pIC50,[51],7.13
same,pIC50,[52],5.82
same,pIC50,[53],6.15
same,pIC50,[54],6.20
same,pIC50,[55],5.99
same,pIC50,[56],6.14
same,pIC50,[57],6.16
same,pIC50,[58],6.36
same,pIC50,[59],7.07
same,pIC50,[60],7.51
same,pIC50,[61],6.60
same,pIC50,[62],7.29
